# Measurements as given in ChEMBL document CHEMBL6127065, “Design and Synthesis of c-Met and HDAC Dual Inhibitors for the Treatment of Breast Cancer” (ACS Med Chem Lett, 2024).
# Calls of active or inactive are those of the source. The calls are words filed in the database; no cut-off is given here.
# Key:
# [1] = test system: MDA-MB-468; assay: Antiproliferative activity against human MDA-MB-468 cells assessed as reduction in cell growth incubated for 72 hrs by MTT assay; conditions: MDA-MB-468, 72 h
# [2] = test system: MDA-MB-231; assay: Induction of apoptosis in human MDA-MB-231 cells assessed as late apoptotic cells at 10 uM incubated for 48 hrs by AnnexinV-FITC/PI staining based flow cytometry (reference value: 3.77 to 3.84%); format: functional
# [3] = test system: MDA-MB-231; assay: Induction of apoptosis in human MDA-MB-231 cells assessed as necrotic cells at 10 uM incubated for 48 hrs by AnnexinV-FITC/PI staining based flow cytometry (reference value: 1.79 to 2.53%); format: functional
# [4] = test system: MDA-MB-231; assay: Induction of apoptosis in human MDA-MB-231 cells assessed as viable cells at 25 uM incubated for 48 hrs by AnnexinV-FITC/PI staining based flow cytometry (reference value: 91.22 to 92.84%); format: functional; conditions: read-out: Activity
# [5] = test system: MDA-MB-231; assay: Induction of apoptosis in human MDA-MB-231 cells assessed as upregulation of cleaved PARP level at 1 to 25 uM incubated for 48 hrs by western blot analysis; format: functional, cell-based; conditions: dose 1-25 µM
# [6] = test system: MDA-MB-231; assay: Induction of cell cycle arrest in human MDA-MB-231 cells assessed as accumulation of cells at G0/G1 phase at 1 uM incubated for 48 hrs by PI staining based flow cytometry (reference value: 55.36 to 55.82%); format: functional
# [7] = test system: MDA-MB-231; assay: Induction of cell cycle arrest in human MDA-MB-231 cells assessed as accumulation of cells at S phase at 2.5 uM incubated for 48 hrs by PI staining based flow cytometry (reference value: 12.56 to 14.76%); format: functional
# [8] = test system: MDA-MB-231; assay: Induction of cell cycle arrest in human MDA-MB-231 cells assessed as accumulation of cells at G2/M phase at 2.5 uM incubated for 48 hrs by PI staining based flow cytometry (reference value: 29.42 to 32.08%); format: functional
# [9] = test system: MDA-MB-231; assay: Induction of cell cycle arrest in human MDA-MB-231 cells assessed as accumulation of cells at G2/M phase at 10 uM incubated for 48 hrs by PI staining based flow cytometry (reference value: 29.42 to 32.08%); format: functional
# [10] = test system: MDA-MB-231; assay: Induction of cell cycle arrest in human MDA-MB-231 cells assessed as accumulation of cells at G2/M phase at 25 uM incubated for 48 hrs by PI staining based flow cytometry (reference value: 29.42 to 32.08%); format: functional
# [11] = biological target: Hepatocyte growth factor receptor (Homo sapiens, UniProt P08581); assay: Inhibition of c-Met in human MDA-MB-231 cells assessed as inhibition of Akt phosphorylation at Ser473 residue incubated for 48 hrs by western blot analysis; format: cell-based; conditions: dose 1-25 µM
# Sequence of Hepatocyte growth factor receptor (P08581 whole entry): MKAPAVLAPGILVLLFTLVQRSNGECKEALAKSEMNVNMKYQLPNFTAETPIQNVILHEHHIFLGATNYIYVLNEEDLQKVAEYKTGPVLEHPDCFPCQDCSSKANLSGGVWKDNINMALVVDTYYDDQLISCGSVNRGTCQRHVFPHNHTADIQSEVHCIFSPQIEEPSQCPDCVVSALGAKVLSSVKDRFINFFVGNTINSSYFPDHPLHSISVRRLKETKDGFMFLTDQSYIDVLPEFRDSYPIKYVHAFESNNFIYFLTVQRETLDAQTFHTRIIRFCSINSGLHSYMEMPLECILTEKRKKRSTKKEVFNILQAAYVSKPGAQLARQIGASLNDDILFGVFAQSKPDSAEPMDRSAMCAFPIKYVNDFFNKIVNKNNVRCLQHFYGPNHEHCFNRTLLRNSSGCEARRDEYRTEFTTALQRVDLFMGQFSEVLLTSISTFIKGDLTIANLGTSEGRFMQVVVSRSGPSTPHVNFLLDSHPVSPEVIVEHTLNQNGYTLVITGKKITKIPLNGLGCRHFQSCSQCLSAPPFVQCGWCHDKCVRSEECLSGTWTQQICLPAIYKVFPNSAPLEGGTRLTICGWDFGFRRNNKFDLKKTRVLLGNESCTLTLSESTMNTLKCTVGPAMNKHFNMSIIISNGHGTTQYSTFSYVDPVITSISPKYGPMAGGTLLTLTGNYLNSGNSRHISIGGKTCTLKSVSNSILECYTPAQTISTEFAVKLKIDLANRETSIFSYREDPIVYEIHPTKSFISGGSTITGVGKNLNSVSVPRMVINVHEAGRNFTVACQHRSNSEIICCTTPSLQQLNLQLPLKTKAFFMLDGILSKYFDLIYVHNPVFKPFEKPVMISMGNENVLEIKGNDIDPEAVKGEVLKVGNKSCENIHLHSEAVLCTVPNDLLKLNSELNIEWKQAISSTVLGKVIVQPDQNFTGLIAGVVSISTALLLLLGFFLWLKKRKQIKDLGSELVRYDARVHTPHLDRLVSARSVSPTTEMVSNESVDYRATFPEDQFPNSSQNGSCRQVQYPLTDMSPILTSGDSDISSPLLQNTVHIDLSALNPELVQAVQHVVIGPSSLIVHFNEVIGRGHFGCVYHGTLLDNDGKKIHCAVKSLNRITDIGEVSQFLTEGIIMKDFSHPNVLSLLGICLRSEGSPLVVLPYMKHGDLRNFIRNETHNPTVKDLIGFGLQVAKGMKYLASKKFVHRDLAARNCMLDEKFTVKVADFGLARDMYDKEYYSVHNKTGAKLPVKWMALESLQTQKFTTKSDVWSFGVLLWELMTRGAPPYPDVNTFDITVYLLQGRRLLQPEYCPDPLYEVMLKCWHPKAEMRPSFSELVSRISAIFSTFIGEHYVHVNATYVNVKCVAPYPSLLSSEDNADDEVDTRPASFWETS
smiles,measurement,setting,value
CC(c1ccc2ncccc2c1)n1nnc2ncc(N3CCN(Cc4ccc(/C=C/C(=O)Nc5ccccc5N)cc4)CC3)nc21 (stereo unspecified),IC50,[1],1250 nM
same,Activity,[2],10.69%
same,Activity,[3],1.67%
same,viability at 25 µM,[4],82.8%
same,Activity,[5],Active
same,Activity,[6],65.34%
same,Activity,[7],9.53%
same,Activity,[8],23.33%
same,Activity,[9],16.08%
same,Activity,[10],10.57%
same,inhibition,[11],Dose-Dependent Effect
